Consider 14 molecules from EP0406111A1, “Substituted arylamines and heteroarylamines, process for their preparation and pharmaceutical composition containing them” (SOCIETE DE CONSEILS DE […] D'APPLICATIONS SCIENTIFIQUES …, priority 1989, dated 1991).

Structures are written as SMILES. Where two headings read alike, the source gives them in different places. A value given as a limit tells only on which side of the number the result lay.

One may read the IC50 as the concentration that gives 50% inhibition.

In test [1] the target is T1, complexe de recapture de la dopamine (Rattus norvegicus, UniProt P23977).
T1 construct: expériences de compétition sur les membranes de striatum préparées comme ci-dessus; from tissue; host or cells: rat striatal membranes
The test is described as follows: biochemical. The class given is binding. Conditions: for Sélectivité IC50[^3H]TCP / IC50[^3H]BTCP: ratio of IC50 at the PCP receptor to IC50 at the dopamine reuptake complex. The procedure: Exemple 35 : Affinité des composés pour les sites de liaison de la (³H)BTCP sur les membranes striatales de cerveaux de rats.
Les striata de cerveaux de rats rapidement disséqués dans la glace sont homogénéisés avec un ultra turax pendant 30 s (position 6) dans 50 volumes d'une solution de sucrose 0,32 M tamponnée par du Tris-HCl 10 mM à pH = 7,4. L'homogénat est centrifugé à 4°C à 1000g pendant 10 mln, puis le surnageant obtenu est centrifugé à 40000 g à 4°C pendant 30 min et les culots obtenus sont repris dans 1 ml de tampon par striatum.
L'affinité des composés pour le complexe de recapture de la dopamine est déterminée par des expériences de compétition sur les membranes de striatum préparées comme ci-dessus. Le ligand radioactif utilisé est la (³H)BTCP (Service des Molécules Marquées du CEA, Saclay France) à 55Ci/mmol.
Après 90 min à 4°C, 3 aliquots de 250 µl sont filtrés sous vide sur des filtres de fibre de verre GF/B (Whatman). La liaison non spécifique est obtenue dans des expériences parallè-les réalisées en présence de 10 µM de BTCP non marquée. Elle est soustraite de la liaison totale pour obtenir la liaison spécifique.

The target in test [2] is T2, capture de (³H)dopamine par les synaptosomes striataux de rat (Rattus norvegicus, UniProt P23977).
T2 construct: Les culots résultants P2 contenant les synaptosomes bruts sont ensuite utilisés sans purification supplémentaire; from tissue; host or cells: Wistar rat striatum, crude synaptosomes (P2 pellet)
The test can be described thus: biochemical. The procedure:
Ce test est pratiqué selon la méthode utilisée par Vignon et Lazdunski en opérant de la façon suivante. Des rats Wistar pesant 200-250g sont tués par dislocation cervicale. Leurs cerveaux sont rapidement prélevés et les striata sont dissé-qués sur la glace. Les striata sont ensuite homogéné-isés (10 allers-retours) avec un homogénéisant Potter dans 50 volumes de tampon Tris HCl 10 mM à pH 7,4 contenant 0,32 M de sucrose. L'homogénat est ensuite centrifugé à 1000g pendant 10min à 4°C, puis le surnageant obtenu est recentrifugé à 10000g pendant 20min à 4°C. Les culots résultants P2 contenant les synaptosomes bruts sont ensuite utilisés sans purification supplémentaire.
On ajoute alors de la dopamine tritiée ((³H)DA, Amersham) à une concentration finale de 5 nM pendant 5 min à 30°C, et on interrompt sa capture par filtration de 150 µl du milieu d'incubation sur des filtres en fibres de verre GF/B (Whatman). La radioactivité retenue par les filtres est mesurée dans un compteur à scintillation liquide (LKB)avec 3 ml d'ACS (Amersham) comme scintillant. La capture non spécifique est mesurée à 4°C dans des incubations parallèles : elle est ensuite sous-traite de la capture totale mesurée à 30°C.
Les composés à tester sont solubilisés au départ dans de l'eau à une concentration de 1mM et les autres concentrations sont obtenues par des dilutions successives de cette solution mère dans l'eau.

The test system of a further test is souris Swiss. The test is described as follows: Locomotor activity of mice in the Boissier-Simon actimeter (Example 38). The class given is in vivo. Conditions: 30 min after administration, beams crossed from 20th to 35th minute. The procedure:
Exemple 38 : Mesure de l'activité locomotrice.
L'activité locomotrice de souris Swiss (mâles CD1, 25-30 g, Charles River, St Aubin lès Elbeuf, France) est mesurée dans l'actimètre Boissier-Simon (Apelex, Bagneux, France).
30 minutes après l'administration des composés à tester (10 mg/kg, i.p.), les souris sont introduites dans des cages individuelles en Plexiglass (L = 26 cm, l = 20 cm, h = 10 cm), équipées de deux cellules photoélectriques situées à 1 cm au-dessus du plancher. Chaque cellule est reliée à un compteur électromécanique. "L'activité locomotrice" correspond au nombre de rayons traversés, de la 20ème à la 35ème minute après introduction dans les cages d'actimétrie.

In a further test the target is récepteur de la PCP. The test is described as follows: Competition binding at the (3H)TCP sites on rat brain homogenates (Example 36). Conditions: 1 nM (3H)TCP, 30 min at 25°C. An excerpt: Exemple 36 : Affinité des composés pour les sites de liaison de la (³H)TCP sur les homogénats de cerveaux de rats.
Dans cet essai on mesure les affinités des composés pour le récepteur de la PCP par des expériences de compétition sur des homogénats de cerveaux de rats. Le ligand radioactif utilisé est la (³H)TCP à une activité spécifique de 62 Ci/mmol (Service des Molécules Marquées, CEA Saclay France).
Les cerveaux de rats (sans le cervelet et le tronc cérébral) sont homogénéisés à l'ultra turax dans 20 volumes de tampon Hepes-Tris 50 mM, pH 7,7. Après centrifugation pendant 30 min à 15000 g le culot est repris dans le même volume de tampon et recentrifugé dans les mêmes conditions. Le culot final est repris dans du tampon Hepes-Tris 50 mM, pH 7,7 de façon à obtenir une concentration en protéine de 6 à 8 mg/ml.
Les expériences de compétition sont réalisées en incubant pendant 30 min les membranes (concentration finale en protéine : 0,6 à 0,8 mg/ml) en milieu tampon 5 mM Hepes-Tris, pH 7,7 à 25°C, en présence d'une concentration fixe de ligand tritié (1 nM)et de concentrations croissantes de composés à tester. Trois échantillons de 600 µL sont ensuite filtrés sur filtres de fibres de verre GF/B prétraités par du PEI (polyéthylénimine) à 0,1%. Les filtres sont rincés avec 3x5ml de tampon Tris-HCl 10 mM, NaCl 100 mM et la radioactivité retenue est mesurée dans un compteur à scintillation liquide. La liaison non spécifique est obtenue en présence de TCP […].

Setting [3] is: rat striatal membranes, 0,2 nM (3H)BTCP, 90 min at 4°C, read-out: [3H] BTCP IC50.
Setting [4] is: rat striatal synaptosomes, 5 nM (3H)DA, 5 min at 30°C, read-out: [3H] DA IC50.

T1 sequence (P23977 whole entry, one chain of several): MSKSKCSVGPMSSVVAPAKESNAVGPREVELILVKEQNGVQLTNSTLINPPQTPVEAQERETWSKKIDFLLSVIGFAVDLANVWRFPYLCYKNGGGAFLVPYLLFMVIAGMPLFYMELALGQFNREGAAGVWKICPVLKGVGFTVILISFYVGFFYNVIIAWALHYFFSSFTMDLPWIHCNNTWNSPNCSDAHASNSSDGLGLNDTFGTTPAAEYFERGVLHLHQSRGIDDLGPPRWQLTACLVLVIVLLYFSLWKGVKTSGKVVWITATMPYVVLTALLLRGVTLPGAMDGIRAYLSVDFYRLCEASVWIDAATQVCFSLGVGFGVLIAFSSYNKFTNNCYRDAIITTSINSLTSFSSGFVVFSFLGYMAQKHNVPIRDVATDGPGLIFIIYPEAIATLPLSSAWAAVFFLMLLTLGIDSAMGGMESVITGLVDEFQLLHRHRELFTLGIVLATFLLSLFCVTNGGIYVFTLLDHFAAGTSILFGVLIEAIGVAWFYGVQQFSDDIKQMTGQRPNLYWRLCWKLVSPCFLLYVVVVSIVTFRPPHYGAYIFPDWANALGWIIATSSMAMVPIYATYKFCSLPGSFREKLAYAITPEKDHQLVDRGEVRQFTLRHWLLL
T2 sequence (P23977 whole entry): as the sequence (P23977 whole entry, one chain of several) above

Turning to `CC1CC(C)CN(C2(c3cc4ccccc4o3)CCCC(C)C2)C1` (centres unmarked) [composé n^o 14, (benzo(b)furannyl-2)-1-r-((diméthyl-3,5 pipéridino)-1)-1 t-méthyl-3 cyclohexane], the values for the concentration for half-maximal inhibition (IC50) in test [1] (setting [3]) and in test [2] (setting [4]) were 2210 nM and 2740 nM, respectively.
For `CC1CCN(C2(c3cc4ccccc4s3)CCCCC2)CC1` [composé n^o 7, (benzo(b)thiophényl-2)-1 ((méthyl-4 pipéridino)-1)-1 cyclohexane], the figures for the IC50 in test [1] (setting [3]) and in test [2] (setting [4]) were 30.8 nM and 11.5 nM, respectively.
Regarding `C[C@H]1CCC[C@@](c2cc3ccccc3s2)(N2CCCCC2)C1` (relative stereo) [composé n^o 22, (benzo(b)thiophényl-2)-1 c-méthyl-3-r-(piperidino-1)-1 cyclohexane], the IC50 turned out to be 369 nM in test [1] (setting [3]) and 691 nM in test [2] (setting [4]).
`OCC1CCCN(C2(c3cc4ccccc4s3)CCCCC2)C1` (centres unmarked) [composé n^o 9, (benzo(b)thiophényl-2)-1 ((hydroxyméthyl-3 pipéridino)-1)-1 cyclohexane]: the “Activité locomotrice Variation (%) par rapport aux témoins (100%) pour la dose 10 mg/kg,i.p.” value with souris Swiss is listed as “+416±36%”. The IC50 is 18.1 nM in test [1] (setting [3]) and 20.9 nM in test [2] (setting [4]).
`CC1CCCCC1(c1cc2ccccc2s1)N1CCCCC1` (centres unmarked) [composé n^o 25, (benzo(b)thiophényl-2)-1 t-méthyl-2--r-(pipéridino-1)-1 cyclohexane]: the IC50 in test [1] (setting [3]) came out at 1480 nM; in test [2] (setting [4]) it was 1280 nM.
For `CC(=O)OCC1CCCN(C2(c3cc4ccccc4s3)CCCCC2)C1` (centres unmarked) [composé n^o 15, acétate de (benzo(b)-thiophényl-2)-1 ((hydroxyméthyl-3 pipéridino)-1)-1 cyclohexane], in that order: 24 nM and 44.5 nM.
With `CCN(CC)C1(c2cc3ccccc3s2)CCCCC1` [composé n^o8, (benzo(b)thiophényl-2)-1 (diéthylamino-1)-1 cyclohexane], in the test on souris Swiss, the “Activité locomotrice Variation (%) par rapport aux témoins (100%) pour la dose 10 mg/kg,i.p.” value is “+52±21%”. Further, the half-inhibitory concentration (IC50) in test [1] worked out at 16.7 nM; in test [2], 20.1 nM.
Consider `c1ccc2c(C3(N4CCCCC4)CCCCC3)cccc2c1` [composé n^o 17, (naphtyl-1)-1 (pipéridino-1)-1 cyclohexane], for which the IC50 in test [1] (setting [3]) is 2560 nM; in test [2] (setting [4]), 3250 nM.
As to `ICC1CCCN(C2(c3cc4ccccc4s3)CCCCC2)C1` (centres unmarked) [composé n^o 11], the values for the IC50 (in test [1] (setting [3]); in test [2] (setting [4]); on récepteur de la PCP) were 26 nM, 54.3 nM and greater than 100000 nM, respectively. Further, the “Sélectivité IC50[^3H]TCP / IC50[^3H]BTCP” value in test [1] is reported as >>3846.
As for `CC1CCCC(c2cc3ccccc3s2)(N2CCCCC2)C1` (centres unmarked) [composé n^o 23, (benzo(b)thiophényl-2)-1 t-méthyl-3-r-(pipéridino-1)-1 cyclohexane], the IC50 in test [1] (setting [3]) was determined as 590 nM; in test [2] (setting [4]) it was 606 nM.
Taken in the same sequence, the figures for `CC1CC(C)CN([C@]2(c3cc4ccccc4s3)CC[C@H](C)CC2)C1` (relative stereo) [composé n^o 13, (benzo(b)thiophényl-2)-1-r-((diméthyl-3,5 pipéridino)-1)-1 c-méthyl-4 cyclohexane] were 635 nM and 425 nM.
As for `C[C@H]1CCCC[C@@]1(c1cc2ccccc2s1)N1CCCCC1` (relative stereo) [composé n^o 24, (benzo(b)thiophényl--2)-1 c-méthyl-2-r-(pipéridino-1)-1 cyclohexane], the “Activité locomotrice Variation (%) par rapport aux témoins (100%) pour la dose 10 mg/kg,i.p.” value in the test on souris Swiss was “+101±23%”. The IC50 in test [1] (setting [3]) turned out to be 14.7 nM; in test [2] (setting [4]), 30.6 nM.
In the case of `ClCC1CCCN(C2(c3cc4ccccc4s3)CCCCC2)C1` (centres unmarked) [composé n^o 12, (benzo(b)thiophényl-2)-1 ((chlorométhyl-3 pipéridino)-1)-1 cyclohexane], the IC50 in test [1] (setting [3]) was 102 nM; in test [2] (setting [4]) it was 107 nM.
As for `c1ccc2sc(C3(N4CCC5(CC4)OCCO5)CCCCC3)cc2c1` [composé n^o 5, (benzo(b)thiophényl-2)-1 ((éthylènekétal-4 pipéridino)-1)-1 cyclohexane], the IC50 was 35.5 nM in test [1] (setting [3]), 65.7 nM in test [2] (setting [4]) and greater than 100000 nM at récepteur de la PCP. Moreover, the “Sélectivité IC50[^3H]TCP / IC50[^3H]BTCP” value in test [1] is >>2816.
